For orientation: Emax means the greatest response seen or fitted, relative to the assay's reference.

What all share (assay type): functional
Experiment [1] has as its system Oryctolagus cuniculus. Kind of experiment: Neuromuscular blocking in rabbit model of propofol-induced anesthesia assessed as duration of time for maximal blockade at 272.7 nmol/kg by train-of-four response method.
Experiment [2] relates to Oryctolagus cuniculus. Kind of experiment: Neuromuscular blocking in rabbit model of propofol-induced anesthesia assessed as time duration of 25 to 75 percent recovery indices at 0.06 mg/kg of inductive dose with continuous infusion of compound measured for 1 hr by train-of-four response method.
The test system of experiment [3] is Oryctolagus cuniculus. Description: Neuromuscular blocking in rabbit model of propofol-induced anesthesia assessed as time duration of 25 to 75 percent recovery indices at 0.06 mg/kg of inductive dose with continuous infusion of compound measured for 2 hrs by train-of-four response method.
Experiment [4] deals with Oryctolagus cuniculus. Kind of experiment: Neuromuscular blocking in rabbit model of propofol-induced anesthesia assessed as time duration of 75 to 90 percent recovery indices at 0.06 mg/kg of inductive dose with continuous infusion of compound measured for 2 hrs by train-of-four response method.
Experiment [5] concerns Oryctolagus cuniculus. Description: Neuromuscular blocking in rabbit model of propofol-induced anesthesia assessed as time duration of 25 to 90 percent recovery indices at 0.06 mg/kg of inductive dose with continuous infusion of compound measured for 1 hr by train-of-four response method.
Experiment [6] concerns Oryctolagus cuniculus. Kind of experiment: Neuromuscular blocking in rabbit model of propofol-induced anesthesia assessed as time duration of 25 to 90 percent recovery indices at 0.06 mg/kg of inductive dose with continuous infusion of compound measured for 2 hrs by train-of-four response method.
The test system of experiment [7] is Oryctolagus cuniculus. Description: Neuromuscular blocking in rabbit model of propofol-induced anesthesia assessed as maximal blockade at 27.27 nmol/kg by train-of-four response method relative to control.
The subject of experiment [8] is Oryctolagus cuniculus. Description: Neuromuscular blocking in rabbit model of propofol-induced anesthesia assessed as effective blocking time by measuring duration from administration to 25 percent recovery at 27.27 nmol/kg by train-of-four response method.
For experiment [9], the system named is Oryctolagus cuniculus. Kind of experiment: Neuromuscular blocking in rabbit model of propofol-induced anesthesia assessed as time duration of 25 to 75 percent recovery indices at 0.06 mg/kg of inductive dose with continuous infusion of compound measured for 0.5 hrs by train-of-four response method.
The test system of experiment [10] is Oryctolagus cuniculus. Description: Neuromuscular blocking in rabbit model of propofol-induced anesthesia assessed as effective blocking time by measuring duration from administration to 25 percent recovery at 272.7 nmol/kg by train-of-four response method.
Experiment [11] concerns Oryctolagus cuniculus. Kind of experiment: Neuromuscular blocking in rabbit model of propofol-induced anesthesia assessed as time duration of 25 to 75 percent recovery indices at 272.7 nmol/kg by train-of-four response method.
In experiment [12] the test system is Oryctolagus cuniculus. Description: Neuromuscular blocking in rabbit model of propofol-induced anesthesia assessed as onset time at 27.27 nmol/kg by train-of-four response method.
The test system of experiment [13] is Oryctolagus cuniculus. Description: Neuromuscular blocking in rabbit model of propofol-induced anesthesia assessed as time duration of 75 to 90 percent recovery indices at 0.06 mg/kg of inductive dose with continuous infusion of compound measured for 0.5 hrs by train-of-four response method.
In experiment [14] the test system is Oryctolagus cuniculus. Kind of experiment: Neuromuscular blocking in rabbit model of propofol-induced anesthesia assessed as time duration of 25 to 90 percent recovery indices at 27.27 nmol/kg by train-of-four response method.
For experiment [15], the system named is Oryctolagus cuniculus. Kind of experiment: Neuromuscular blocking in rabbit model of propofol-induced anesthesia assessed as time duration of 25 to 75 percent recovery indices at 27.27 nmol/kg by train-of-four response method.
In experiment [16] the test system is Oryctolagus cuniculus. Kind of experiment: Neuromuscular blocking in rabbit model of propofol-induced anesthesia assessed as maximal blockade at 272.7 nmol/kg by train-of-four response method relative to control.
Experiment [17] deals with Oryctolagus cuniculus. Kind of experiment: Neuromuscular blocking in rabbit model of propofol-induced anesthesia assessed as time duration of 75 to 90 percent recovery indices at 0.06 mg/kg of inductive dose with continuous infusion of compound measured for 1 hr by train-of-four response method.
Experiment [18] deals with Oryctolagus cuniculus. Description: Neuromuscular blocking in rabbit model of propofol-induced anesthesia assessed as time duration of 25 to 90 percent recovery indices at 272.7 nmol/kg by train-of-four response method.
Experiment [19] relates to Oryctolagus cuniculus. Description: Neuromuscular blocking in rabbit model of propofol-induced anesthesia assessed as onset time at 272.7 nmol/kg by train-of-four response method.
The subject of experiment [20] is Oryctolagus cuniculus. Description: Neuromuscular blocking in rabbit model of propofol-induced anesthesia assessed as time duration of 25 to 90 percent recovery indices at 0.06 mg/kg of inductive dose with continuous infusion of compound measured for 0.5 hrs by train-of-four response method.
In experiment [21] the test system is Oryctolagus cuniculus. Kind of experiment: Neuromuscular blocking in rabbit model of propofol-induced anesthesia assessed as duration of time for maximal blockade at 27.27 nmol/kg by train-of-four response method.
For experiment [22], the system named is Oryctolagus cuniculus. Description: Neuromuscular blocking in rabbit model of propofol-induced anesthesia assessed as time duration of 25 to 75 percent recovery indices at 0.33 mg/kg of inductive dose with continuous infusion of compound measured for 0.5 hrs by train-of-four response method.
For experiment [23], the system named is Oryctolagus cuniculus. Description: Neuromuscular blocking in rabbit model of propofol-induced anesthesia assessed as time duration of 75 to 90 percent recovery indices at 0.33 mg/kg of inductive dose with continuous infusion of compound measured for 0.5 hrs by train-of-four response method.
Experiment [24] deals with Oryctolagus cuniculus. Kind of experiment: Neuromuscular blocking in rabbit model of propofol-induced anesthesia assessed as time duration of 25 to 90 percent recovery indices at 0.33 mg/kg of inductive dose with continuous infusion of compound measured for 0.5 hrs by train-of-four response method.

For `COc1cc2c(cc1OC)[C@@H](Cc1cc(OC)c(OC)c(OC)c1)[N+](C)(CCCOC(=O)CC/C=C/CCC(=O)OCCC[N+]1(C)CCc3cc(OC)c(OC)cc3[C@H]1Cc1cc(OC)c(OC)c(OC)c1)CC2.[Cl-].[Cl-]` (stereo not given in full) [MIVACURIUM CHLORIDE], the Time in experiment [1] is 15.79 min; in experiment [2] it was 8.5 min; in [3], 4.92 min; in experiment [4], 4.83 min; in [5] it was 11.79 min; in experiment [6] it was 9 min. The Time is 7.92 min in experiment [8]; 8 min in experiment [9]; 18.57 min in [10]; 6.54 min in experiment [11]; 1.58 min in [12]; 3.5 min in [13]. The Time in [14] was 11.42 min; in experiment [15] it was 7.75 min; in experiment [17], 3.29 min; in experiment [18] it was 9.71 min; in [19], 0.79 min; in [20] it was 11.5 min. Moreover, the Time in experiment [21] worked out at 4.42 min. Further, the Emax at 0.02727 µmol/kg in [7] was 100%. Besides, the Emax at 0.2727 µmol/kg in experiment [16] is 100%.

With `COc1cc2c(cc1OC)[C@@H](Cc1cc(OC)c(OC)c(OC)c1)[N+](C)(CCCOC(=O)CCCC(=O)OCCC[N+]1(C)CCc3cc(OC)c(OC)cc3[C@H]1Cc1cc(OC)c(OC)c(OC)c1)CC2.[Cl-].[Cl-]` (stereo not given in full), the Time in experiment [1] was 66.5 min; in [8] it was 11.67 min; in experiment [10], 73.08 min; in experiment [11], 7.67 min; in [12], 2.58 min; in experiment [14] it was 11.77 min. Moreover, the Time in experiment [15] came out at 7.75 min; in experiment [18] it was 12 min; in [19], 0.75 min; in experiment [21], 8.08 min. Moreover, the maximal response (Emax) at 0.02727 µmol/kg in [7] came out at 100%. The maximum response (Emax) at 0.2727 µmol/kg in experiment [16] was found to be 100%.

`COc1cc2c(cc1OC)[C@@H](Cc1cc(OC)c(OC)c(OC)c1)[N@+](C)(CCCOC(=O)CC/C=C/CCC(=O)OCCC[N@+]1(C)CCc3cc(OC)c(OC)cc3[C@H]1Cc1cc(OC)c(OC)c(OC)c1)CC2.[Cl-].[Cl-]`: the Time in experiment [1] is 14.67 min; in experiment [2], 6.96 min; in experiment [3], 4.58 min; in experiment [4], 3.17 min; in experiment [5], 9.63 min; in experiment [6], 7.75 min. The Time in experiment [8] is on record as 5.58 min; in [9], 7.13 min; in [10] it was 19.58 min; in experiment [11] it was 11.25 min; in experiment [12] it was 1.88 min; in experiment [13], 3.6 min. Further, the Time in experiment [14] stood at 15.08 min; in [15], 9.22 min; in [17], 2.67 min; in [18] it was 13.92 min; in [19], 0.67 min; in [20], 10.73 min. Also, the Time in experiment [21] worked out at 4.25 min. Besides, the Emax at 0.02727 µmol/kg in experiment [7] turned out to be 100%. Moreover, the Emax at 0.2727 µmol/kg in experiment [16] amounted to 100%.

`COc1cc2c(cc1OC)[C@@H](Cc1cc(OC)c(OC)c(OC)c1)[N+](C)(CCC(=O)OC/C=C\COC(=O)CC[N+]1(C)CCc3cc(OC)c(OC)cc3[C@H]1Cc1cc(OC)c(OC)c(OC)c1)CC2.O=S(=O)([O-])c1ccccc1.O=S(=O)([O-])c1ccccc1` (stereo not given in full): the Time in experiment [1] was 8.25 min; in [22], 8 min; in experiment [23], 3.17 min; in [10], 11.83 min; in [11] it was 7.5 min; in experiment [18] it was 10.25 min. For the same compound, the Time is recorded as 1.67 min in experiment [19] and 11.17 min in experiment [24]. In addition, the Emax at 0.2727 µmol/kg in experiment [16] was 100%.

Take `COc1cc2c(cc1OC)[C@@H](Cc1cc(OC)c(OC)c(OC)c1)[N@@+](C)(CCCOC(=O)CC/C=C/CCC(=O)OCCC[N@+]1(C)CCc3cc(OC)c(OC)cc3[C@H]1Cc1cc(OC)c(OC)c(OC)c1)CC2.[Cl-].[Cl-]` (mixture of isomers): the Time in experiment [1] worked out at 21.42 min; in experiment [2], 7.08 min; in [5] it was 12.42 min; in [9] it was 6.9 min; in experiment [10], 24.5 min; in [11], 10.5 min. Also, the Time in [12] is 3.58 min; in experiment [13], 4.2 min; in experiment [14] it was 8.92 min; in experiment [15], 4.92 min; in experiment [17] it was 5.33 min; in [18], 13.42 min. Also, the Time in experiment [19] was found to be 0.83 min; in [20] it was 11.1 min; in experiment [21], 1.92 min. Moreover, in [7], the maximal effect (Emax) at 0.02727 µmol/kg was found to be 80%. Moreover, in [16], the maximal effect (Emax) at 0.2727 µmol/kg was found to be 100%.
